Measured values published in US20240300932A1, “N-PHENYLIMINE DERIVATIVE AND PREPARATION METHOD AND USE THEREOF” (Guizhou University, priority 2023, published 2024).

Experiments:
Trifoliumre pensL. = experiment: Post-emergence herbicidal activity test (stem and leaf spray, pot culture); assay type: in vivo; details: 3 weeks after spraying
Summary of the method: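 Pot-grown weeds in loam (pH 7), greenhouse at 20–30 °C, sprayed once post-emergence at the 2–3-leaf stage. Compound in acetone with Tween 80 plus methyl oleate oil (1.5 L/ha), applied at 10, 5 and 2.5 g/mu by spray tower. Effect scored 3 weeks after spraying, averaged over three repeats.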

Portulaca oleracea = experiment: Post-emergence herbicidal activity test (stem and leaf spray, pot culture); assay type: in vivo; details: 3 weeks after spraying
Summary of the method: (§1)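 Greenhouse pot-grown weeds (loam, pH 7) sprayed post-emergence at 2- to 3-leaf stage with acetone/Tween 80 formulation plus 1.5 liters/ha methyl oleate, at 10, 5 and 2.5 g/mu. Fresh-weight growth control rated 3 weeks later on 0–5 grade scale.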

Echinochloa crusgalli = experiment: as above; assay type: in vivo; details: 3 weeks after spraying
Summary of the method: as §1

Setaria viridis = experiment: as above; assay type: in vivo; details: 3 weeks after spraying
Summary of the method: as §1

Amaranthus retroflexus = experiment: as above; assay type: in vivo; details: 3 weeks after spraying
Summary of the method: as §1

Abutilon theophrasti = experiment: as above; assay type: in vivo; details: 3 weeks after spraying
Summary of the method: as §1

Cc1ccccc1-c1nnc(COc2cc(N3C(=O)C4=C(CCCC4)C3=O)c(F)cc2Cl)o1 [Compound B9, 2-(4-chloro-2-fluoro-5-((5-(2-tolyl)-1,3,4-oxadiazole-2-yl)methoxy)phenyl)-4,5,6,7-tetrahydro-1H-isoindole-1,3(2H)-dione]
Post-emergence herbicidal activity, Trifoliumre pensL. (grade) (Trifoliumre pensL.; dosage 2.5 g/mu): 5 (Grade 5: the growth control rate is greater than or equal to 85%) | Post-emergence herbicidal activity, Trifoliumre pensL. (grade) (Trifoliumre pensL.; dosage 5 g/mu): 5 (Grade 5: the growth control rate is greater than or equal to 85%) | Post-emergence herbicidal activity, Trifoliumre pensL. (grade) (Trifoliumre pensL.; dosage 10 g/mu): 5 (Grade 5: the growth control rate is greater than or equal to 85%) | melting point: 144 to 147 °C | Post-emergence herbicidal activity, P. oleracea (grade) (Portulaca oleracea; dosage 2.5 g/mu): 5 (Grade 5: the growth control rate is greater than or equal to 85%) | Post-emergence herbicidal activity, P. oleracea (grade) (Portulaca oleracea; dosage 5 g/mu): 5 (Grade 5: the growth control rate is greater than or equal to 85%) | Post-emergence herbicidal activity, P. oleracea (grade) (Portulaca oleracea; dosage 10 g/mu): 5 (Grade 5: the growth control rate is greater than or equal to 85%) | Post-emergence herbicidal activity, E. crusgalli (grade) (Echinochloa crusgalli; dosage 2.5 g/mu): 1 (Grade 1: the growth control rate is greater than or equal to 5% and less than 20%) | Post-emergence herbicidal activity, E. crusgalli (grade) (Echinochloa crusgalli; dosage 5 g/mu): 2 (Grade 2: the growth control rate is greater than or equal to 20% and less than 40%) | Post-emergence herbicidal activity, E. crusgalli (grade) (Echinochloa crusgalli; dosage 10 g/mu): 3 (Grade 3: the growth control rate is greater than or equal to 40% and less than 60%) | Post-emergence herbicidal activity, S. viridis (grade) (Setaria viridis; dosage 2.5 g/mu): 2 (Grade 2: the growth control rate is greater than or equal to 20% and less than 40%) | Post-emergence herbicidal activity, S. viridis (grade) (Setaria viridis; dosage 5 g/mu): 3 (Grade 3: the growth control rate is greater than or equal to 40% and less than 60%) | Post-emergence herbicidal activity, S. viridis (grade) (Setaria viridis; dosage 10 g/mu): 4 (Grade 4: the growth control rate is greater than or equal to 60% and less than 85%) | Post-emergence herbicidal activity, A. retroflexus (grade) (Amaranthus retroflexus; dosage 2.5 g/mu): 5 (Grade 5: the growth control rate is greater than or equal to 85%) | Post-emergence herbicidal activity, A. retroflexus (grade) (Amaranthus retroflexus; dosage 5 g/mu): 5 (Grade 5: the growth control rate is greater than or equal to 85%) | Post-emergence herbicidal activity, A. retroflexus (grade) (Amaranthus retroflexus; dosage 10 g/mu): 5 (Grade 5: the growth control rate is greater than or equal to 85%) | Post-emergence herbicidal activity, A. theophrasti (grade) (Abutilon theophrasti; dosage 2.5 g/mu): 5 (Grade 5: the growth control rate is greater than or equal to 85%) | Post-emergence herbicidal activity, A. theophrasti (grade) (Abutilon theophrasti; dosage 5 g/mu): 5 (Grade 5: the growth control rate is greater than or equal to 85%) | Post-emergence herbicidal activity, A. theophrasti (grade) (Abutilon theophrasti; dosage 10 g/mu): 5 (Grade 5: the growth control rate is greater than or equal to 85%)

Cc1ccc(-c2nnc(COc3cc(N4C(=O)C5=C(CCCC5)C4=O)c(F)cc3Cl)o2)cc1 [Compound B13, 2-(4-chloro-2-fluoro-5-((5-(4-tolyl)-1,3,4-oxadiazole-2-yl)methoxy)phenyl)-4,5,6,7-tetrahydro-1H-isoindole-1,3(2H)-dione]
Post-emergence herbicidal activity, Trifoliumre pensL. (grade) (Trifoliumre pensL.; dosage 2.5 g/mu): 5 (Grade 5: the growth control rate is greater than or equal to 85%) | Post-emergence herbicidal activity, Trifoliumre pensL. (grade) (Trifoliumre pensL.; dosage 5 g/mu): 5 (Grade 5: the growth control rate is greater than or equal to 85%) | Post-emergence herbicidal activity, Trifoliumre pensL. (grade) (Trifoliumre pensL.; dosage 10 g/mu): 5 (Grade 5: the growth control rate is greater than or equal to 85%) | melting point: 104 to 106 °C | Post-emergence herbicidal activity, P. oleracea (grade) (Portulaca oleracea; dosage 2.5 g/mu): 5 (Grade 5: the growth control rate is greater than or equal to 85%) | Post-emergence herbicidal activity, P. oleracea (grade) (Portulaca oleracea; dosage 5 g/mu): 5 (Grade 5: the growth control rate is greater than or equal to 85%) | Post-emergence herbicidal activity, P. oleracea (grade) (Portulaca oleracea; dosage 10 g/mu): 5 (Grade 5: the growth control rate is greater than or equal to 85%) | Post-emergence herbicidal activity, E. crusgalli (grade) (Echinochloa crusgalli; dosage 2.5 g/mu): 1 (Grade 1: the growth control rate is greater than or equal to 5% and less than 20%) | Post-emergence herbicidal activity, E. crusgalli (grade) (Echinochloa crusgalli; dosage 5 g/mu): 2 (Grade 2: the growth control rate is greater than or equal to 20% and less than 40%) | Post-emergence herbicidal activity, E. crusgalli (grade) (Echinochloa crusgalli; dosage 10 g/mu): 3 (Grade 3: the growth control rate is greater than or equal to 40% and less than 60%) | Post-emergence herbicidal activity, S. viridis (grade) (Setaria viridis; dosage 2.5 g/mu): 2 (Grade 2: the growth control rate is greater than or equal to 20% and less than 40%) | Post-emergence herbicidal activity, S. viridis (grade) (Setaria viridis; dosage 5 g/mu): 3 (Grade 3: the growth control rate is greater than or equal to 40% and less than 60%) | Post-emergence herbicidal activity, S. viridis (grade) (Setaria viridis; dosage 10 g/mu): 4 (Grade 4: the growth control rate is greater than or equal to 60% and less than 85%) | Post-emergence herbicidal activity, A. retroflexus (grade) (Amaranthus retroflexus; dosage 2.5 g/mu): 5 (Grade 5: the growth control rate is greater than or equal to 85%) | Post-emergence herbicidal activity, A. retroflexus (grade) (Amaranthus retroflexus; dosage 5 g/mu): 5 (Grade 5: the growth control rate is greater than or equal to 85%) | Post-emergence herbicidal activity, A. retroflexus (grade) (Amaranthus retroflexus; dosage 10 g/mu): 5 (Grade 5: the growth control rate is greater than or equal to 85%) | Post-emergence herbicidal activity, A. theophrasti (grade) (Abutilon theophrasti; dosage 2.5 g/mu): 5 (Grade 5: the growth control rate is greater than or equal to 85%) | Post-emergence herbicidal activity, A. theophrasti (grade) (Abutilon theophrasti; dosage 5 g/mu): 5 (Grade 5: the growth control rate is greater than or equal to 85%) | Post-emergence herbicidal activity, A. theophrasti (grade) (Abutilon theophrasti; dosage 10 g/mu): 5 (Grade 5: the growth control rate is greater than or equal to 85%)

O=C(COc1cc(N2C(=O)C3=C(CCCC3)C2=O)c(F)cc1Cl)c1ccccc1 [Compound C1, 2-(4-chloro-2-fluoro-5-(2-oxo-2-phenylethoxy)phenyl)-4,5,6,7-tetrahydro-1H-isoindole-1,3(2H)-dione]
Post-emergence herbicidal activity, Trifoliumre pensL. (grade) (Trifoliumre pensL.; dosage 2.5 g/mu): 5 (Grade 5: the growth control rate is greater than or equal to 85%) | Post-emergence herbicidal activity, Trifoliumre pensL. (grade) (Trifoliumre pensL.; dosage 5 g/mu): 5 (Grade 5: the growth control rate is greater than or equal to 85%) | Post-emergence herbicidal activity, Trifoliumre pensL. (grade) (Trifoliumre pensL.; dosage 10 g/mu): 5 (Grade 5: the growth control rate is greater than or equal to 85%) | melting point: 124 to 131 °C | Post-emergence herbicidal activity, P. oleracea (grade) (Portulaca oleracea; dosage 2.5 g/mu): 5 (Grade 5: the growth control rate is greater than or equal to 85%) | Post-emergence herbicidal activity, P. oleracea (grade) (Portulaca oleracea; dosage 5 g/mu): 5 (Grade 5: the growth control rate is greater than or equal to 85%) | Post-emergence herbicidal activity, P. oleracea (grade) (Portulaca oleracea; dosage 10 g/mu): 5 (Grade 5: the growth control rate is greater than or equal to 85%) | Post-emergence herbicidal activity, E. crusgalli (grade) (Echinochloa crusgalli; dosage 2.5 g/mu): 1 (Grade 1: the growth control rate is greater than or equal to 5% and less than 20%) | Post-emergence herbicidal activity, E. crusgalli (grade) (Echinochloa crusgalli; dosage 5 g/mu): 2 (Grade 2: the growth control rate is greater than or equal to 20% and less than 40%) | Post-emergence herbicidal activity, E. crusgalli (grade) (Echinochloa crusgalli; dosage 10 g/mu): 3 (Grade 3: the growth control rate is greater than or equal to 40% and less than 60%) | Post-emergence herbicidal activity, S. viridis (grade) (Setaria viridis; dosage 2.5 g/mu): 2 (Grade 2: the growth control rate is greater than or equal to 20% and less than 40%) | Post-emergence herbicidal activity, S. viridis (grade) (Setaria viridis; dosage 5 g/mu): 3 (Grade 3: the growth control rate is greater than or equal to 40% and less than 60%) | Post-emergence herbicidal activity, S. viridis (grade) (Setaria viridis; dosage 10 g/mu): 4 (Grade 4: the growth control rate is greater than or equal to 60% and less than 85%) | Post-emergence herbicidal activity, A. retroflexus (grade) (Amaranthus retroflexus; dosage 2.5 g/mu): 5 (Grade 5: the growth control rate is greater than or equal to 85%) | Post-emergence herbicidal activity, A. retroflexus (grade) (Amaranthus retroflexus; dosage 5 g/mu): 5 (Grade 5: the growth control rate is greater than or equal to 85%) | Post-emergence herbicidal activity, A. retroflexus (grade) (Amaranthus retroflexus; dosage 10 g/mu): 5 (Grade 5: the growth control rate is greater than or equal to 85%) | Post-emergence herbicidal activity, A. theophrasti (grade) (Abutilon theophrasti; dosage 2.5 g/mu): 5 (Grade 5: the growth control rate is greater than or equal to 85%) | Post-emergence herbicidal activity, A. theophrasti (grade) (Abutilon theophrasti; dosage 5 g/mu): 5 (Grade 5: the growth control rate is greater than or equal to 85%) | Post-emergence herbicidal activity, A. theophrasti (grade) (Abutilon theophrasti; dosage 10 g/mu): 5 (Grade 5: the growth control rate is greater than or equal to 85%)

N#Cc1ccc(C(=O)COc2cc(N3C(=O)C4=C(CCCC4)C3=O)c(F)cc2Cl)cc1 [Compound C3, 2-(4-chloro-2-fluoro-5-(2-oxo-2-(4-cyanophenyl)ethoxy)phenyl)-4,5,6,7-tetrahydro-1H-isoindole-1,3(2H)-dione]
Post-emergence herbicidal activity, Trifoliumre pensL. (grade) (Trifoliumre pensL.; dosage 2.5 g/mu): 5 (Grade 5: the growth control rate is greater than or equal to 85%) | Post-emergence herbicidal activity, Trifoliumre pensL. (grade) (Trifoliumre pensL.; dosage 5 g/mu): 5 (Grade 5: the growth control rate is greater than or equal to 85%) | Post-emergence herbicidal activity, Trifoliumre pensL. (grade) (Trifoliumre pensL.; dosage 10 g/mu): 5 (Grade 5: the growth control rate is greater than or equal to 85%) | melting point: 171 to 178 °C | Post-emergence herbicidal activity, P. oleracea (grade) (Portulaca oleracea; dosage 2.5 g/mu): 5 (Grade 5: the growth control rate is greater than or equal to 85%) | Post-emergence herbicidal activity, P. oleracea (grade) (Portulaca oleracea; dosage 5 g/mu): 5 (Grade 5: the growth control rate is greater than or equal to 85%) | Post-emergence herbicidal activity, P. oleracea (grade) (Portulaca oleracea; dosage 10 g/mu): 5 (Grade 5: the growth control rate is greater than or equal to 85%) | Post-emergence herbicidal activity, E. crusgalli (grade) (Echinochloa crusgalli; dosage 2.5 g/mu): 1 (Grade 1: the growth control rate is greater than or equal to 5% and less than 20%) | Post-emergence herbicidal activity, E. crusgalli (grade) (Echinochloa crusgalli; dosage 5 g/mu): 2 (Grade 2: the growth control rate is greater than or equal to 20% and less than 40%) | Post-emergence herbicidal activity, E. crusgalli (grade) (Echinochloa crusgalli; dosage 10 g/mu): 3 (Grade 3: the growth control rate is greater than or equal to 40% and less than 60%) | Post-emergence herbicidal activity, S. viridis (grade) (Setaria viridis; dosage 2.5 g/mu): 2 (Grade 2: the growth control rate is greater than or equal to 20% and less than 40%) | Post-emergence herbicidal activity, S. viridis (grade) (Setaria viridis; dosage 5 g/mu): 3 (Grade 3: the growth control rate is greater than or equal to 40% and less than 60%) | Post-emergence herbicidal activity, S. viridis (grade) (Setaria viridis; dosage 10 g/mu): 4 (Grade 4: the growth control rate is greater than or equal to 60% and less than 85%) | Post-emergence herbicidal activity, A. retroflexus (grade) (Amaranthus retroflexus; dosage 2.5 g/mu): 5 (Grade 5: the growth control rate is greater than or equal to 85%) | Post-emergence herbicidal activity, A. retroflexus (grade) (Amaranthus retroflexus; dosage 5 g/mu): 5 (Grade 5: the growth control rate is greater than or equal to 85%) | Post-emergence herbicidal activity, A. retroflexus (grade) (Amaranthus retroflexus; dosage 10 g/mu): 5 (Grade 5: the growth control rate is greater than or equal to 85%) | Post-emergence herbicidal activity, A. theophrasti (grade) (Abutilon theophrasti; dosage 2.5 g/mu): 5 (Grade 5: the growth control rate is greater than or equal to 85%) | Post-emergence herbicidal activity, A. theophrasti (grade) (Abutilon theophrasti; dosage 5 g/mu): 5 (Grade 5: the growth control rate is greater than or equal to 85%) | Post-emergence herbicidal activity, A. theophrasti (grade) (Abutilon theophrasti; dosage 10 g/mu): 5 (Grade 5: the growth control rate is greater than or equal to 85%)
